Source: patent US20030228672A1, “Sorbitol dehydrogenases of ketogulonigenium species, genes and methods of use thereof” (priority 2002, published 2003)

B1: SDH2: sorbitol dehydrogenase of K. robustum ADM 86-96, 579 amino acids (SEQ ID NO:7) (protein, listed as Ketogulonigenium sp.)
chain: MKTKSFLFAGVAALASYGTIALADVTPVTDELLANPPAGEWISYGRNQENYRHSPLNQITPENVGQLQLVWARGMNAGKVQVTPLIHDGVMYLANPGDIIQAIDAKTGDLIWEHRRQLPNVATLNSFGEPIRGIALYGTNVYFVSWDNHLVALDAATGQVTFDVDRGQGEDMVSNSSGPIVANGVIVAGSTCQYSPFGCFVSGHDATTGEELWRNYFIPKAGEEGDETWGNDYEARWMTGVWGQITYDPVTNLVFYGSSAVGPASETQRGTTGGTMYGTNTRFAVRPDTGEIVWRHQTLPRDNWDQECTFEMMVANVDVQPSADMDGLKSINPNAATGERRVLTGVPCKTGTMWQFDAETGEFLWARDTNYQNMISSIDETGLVTVNEDIILKDLDTDYRICPTFLGGRDWPSASLNPDSGIYFIPLNNACADLAAVDQEFTAMDVYNTSATYLLAPEKENMGRIDAIDISTGKTLWSVERLASNYSPVLSTAGGVLFNGGSDRYFRALSEETGETLWQTRLATVASGQAVSYELDGVQYIAIAGGGTTYGAVQNRPLAEPVDSTSIGNAVYVFALPQQ

Key:
[1] = system: dehydrogenase enzyme activity in cellular fractions; assay: Enzyme assays with cellular fractions employing nicotinamide cofactors; assay type: biochemical, K. robustum ADM X6L and Ketogulonigenium sp. ADM 291-19; conditions: different substrates, either strain
[2] = system: SDH; assay: SDH activities in osmotic shock fractions, PMS-DCIP method; assay type: biochemical; conditions: for SDH activity, Osmotic Shock Fluid: Osmotic Shock Fluid (periplasmic fraction); for SDH activity, Pellet Sonicate: Pellet Sonicate (cytoplasm and cytoplasmic membrane); for SDH activity, Tris-Sucrose Wash: Tris-Sucrose Wash (periplasmic fraction)
Method: (§1) For more detailed localization study, periplasmic fraction was enriched by the method of osmotic shock (Neu, H. C. and Heppel, L. A., J. Biol. Chem., 240:3685 (1965)). Wet cells were resuspended at about 0.1 g/ml in 20% sucrose-0.03 M Tris·HCl buffer (pH 8.0) at room temperature. Di-sodium EDTA was added to 1 mM and the flask was shaken at 180 rpm at room temperature for 10 min. After centrifugation at 16,000 g for 20 min at 4° C., the supernatant was removed and the pellet was rapidly mixed with cold distilled water of the same volume as the original cell suspension and shaken in ice bucket in a shaker for 10 min. The mixture was centrifuged again to obtain the supernatant called “osmotic shock fluid”. The pellet was sonicated in the same buffer, centrifuged and the supernatant was obtained as “pellet sonicate”.
(§2) The dehydrogenase enzyme activity was assayed spectrophotometrically using 2,6-dichlorophenol indophenol (DCIP) as an artificial electron acceptor and phenazine methosulphate (PMS) as an electron mediator. The reaction mixture contained 50 mM Tris·HCl buffer (pH 8.0), 10 mM MgCl2, 5 mM CaCl2, 5 mM KCN, 0.1 mM PMS, 0.12 mM DCIP, a substrate as D-sorbitol (250 mM), L-sorbose (250 mM) or glyoxal (50 mM) and enzyme solution in a total volumn of 1.0 ml. The rate of decrease in absorbance at 522 nm was determined. One unit of enzyme activity was defined as the amount of enzyme catalyzing reduction of 1 μmol of DCIP per minute.
(§3) For further localization of the enzymes to periplasm or cytoplasm, periplasm was enriched by osmotic shock method as described in Step 3 of Example 1. In this method, the Tris-Sucrose wash and the osmotic shock fluid represent the periplasmic fraction and the pellet sonicate represents the cytoplasm and the cytoplasmic membrane. […] The remaining activity in pellet sonicate could be due to the incomplete release of periplasm by osmotic shock. Typical enzyme activity assay for SDH and β-galactosidase for fractions obtained by osmotic shock fractionation is shown in Table 3.

[3] = system: purified SDH of Ketogulonigenium sp. ADM 291-19; assay: Substrate specificity of purified SDH, PMS-DCIP method; assay type: biochemical; conditions: substrate 250 mM, 1-Propanol = 100
Method: The dehydrogenase enzyme activity was assayed spectrophotometrically using 2,6-dichlorophenol indophenol (DCIP) as an artificial electron acceptor and phenazine methosulphate (PMS) as an electron mediator. […] The rate of decrease in absorbance at 522 nm was determined. One unit of enzyme activity was defined as the amount of enzyme catalyzing reduction of 1 μmol of DCIP per minute.
(§4) First, the periplasmic proteins from the cells of K. robustum ADM X6L and Ketogulonigenium sp. ADM 291-19 obtained in Step 1 of Example 1 were prepared by osmotic shock fractionation as described in Step 3 of Example 1. About 50 ml of osmotic shock fluid containing periplasmic proteins was loaded onto a DEAE-TSK 650 (S) (Merck) column (2.5×15 cm) previously equilibrated with 10 mM Tris·HCl buffer (pH 8.0). The column was first washed with 80 ml of 10 mM Tris·HCl buffer (pH 8.0) containing 0.1 M NaCl, followed by a gradient elution with 600 ml of the same buffer containing 0.1-0.5 M NaCl. Fractions containing 5 ml of eluant were collected and assayed for the SDH enzyme activities with D-sorbitol, L-sorbose and glyoxal as substrate. […] At about 0.15 M NaCl, eluted red fractions that probably contained cytochrome c.
(§5) Active fractions eluted from DEAE column were pooled and further purified by gel filtration column chromatography. The active fractions were concentrated by about 20 fold with ultrafiltration in Centricon 30 (Amicon). The concentrate was loaded onto Superose 12 (Pharmacia) and eluted isocratically with 50 mM sodium phosphate buffer (pH 7.0) containing 0.15 M NaCl.
(§6) The purified enzymes were active toward D-sorbitol, L-sorbose and glyoxal.

[4] = system: purified SDH enzymes; assay: Activity of the purified SDH enzymes toward substrates; assay type: biochemical, K. robustum ADM X6L and Ketogulonigenium sp. ADM 291-19; conditions: purified SDH enzymes of both strains
Method: as §4, §5, §6

[5] = system: dehydrogenase enzyme activity (SDH) of K. robustum ADM X6L; assay: Enzyme activity in cellular fractions, Ferric-Dupanol method (localization); assay type: biochemical, Ketogulonigenium robustum ADM X6L
Method: (§7) Cells were harvested by centrifugation at 12,000 g for 10 min, washed once with 10 mM Tris·HCl buffer (pH 8.0) and disrupted by sonication in a Branson Sonifier 450 for 15 min at 50% duty cycle in ice. The homogenate thus prepared was centrifuged at 12,000 g for 5 min to remove the cell debris. The resulting supernatant was centrifuged at 100,000 g for 90 min to get the supernatant as soluble fraction and the precipitate as crude membrane fraction. The crude membrane fraction was solubilized with 1.5% n-octyl glucoside by stirring for 2 hours at 4° C. The resultant suspension was centrifuged at 12,000 g for 10 min to give a supernatant, designated as solubilized membrane fraction.
(§8) Enzyme activity was determined also by the Ferric-Dupanol method (Wood, W. A. et al., Meth. Enzymol., 5, 287 (1962)). The enzyme was preincubated for 5 min at 25° C. The reaction was started by addition of 10 mM (final conc.) potassium ferricyanide and 250 mM (final conc.) D-sorbitol, L-sorbose, or glyoxal. After an appropriate time, the reaction was stopped by adding the ferric sulfate-Dupanol solution (Fe2(SO4)3.nH2O 5 g/l, Dupanol (sodium lauryl sulfate) 3 g/l and 85% phosphoric acid 95 ml/l) and the absorbance of the Prussian color developed was determined at 660 nm in a spectrophotometer.
(§9) Enzyme activities towards D-sorbitol, L-sorbose and glyoxal in different cellular fractions were determined for enzyme localization in K. robustum ADM X6L and Ketogulonigenium sp. ADM 291-19. In both cases, most of the enzyme activity detected in crude cell extract was found in the soluble fraction and the activity in solubilized membrane fraction was negligible when assayed with Ferric-Dupanol method.

[6] = system: purified SDH of K. robustum ADM X6L; assay: Substrate specificity of purified SDH, PMS-DCIP method; assay type: biochemical, Ketogulonigenium robustum ADM X6L; conditions: substrate 250 mM, 1-Propanol = 100
Method: as §2, §4, §5, §6

[7] = system: dehydrogenase enzyme activity (SDH) of Ketogulonigenium sp. ADM 291-19; assay: Enzyme activity in cellular fractions, Ferric-Dupanol method (localization); assay type: biochemical
Method: as §7, §8, §9

[8] = system: β-galactosidase; assay: β-Galactosidase activity in osmotic shock fractions (intracellular enzyme marker); assay type: biochemical; conditions: High Sensitivity β-Galactosidase Assay Kit
Method: as §1, §3

[9] = system: K. robustum ADM X6L transformants; assay: Bioconversion of L-sorbose by transformants, HPLC of culture supernatant; assay type: cell-based, Ketogulonigenium robustum ADM X6L
Method: (§10) For expression of the three SDH genes in K. robustum strains, the genes with their own promoters were subcloned into the vector, pXH2/K5. These plasmids were transformed into the strains, K. robustum ADM X6L and 86-96 (NRRL B-21630), by electroporation. In this case, gene dosage effect may be expected due to the apparent high copy number of the plasmid pXH2/K5. The transformants were analyzed by HPLC for improved conversion activity upon overexpression of each SDH gene using D-sorbitol and L-sorbose as substrate.
The effect of overexpression of the three SDH genes in bioconversion activity was analyzed by HPLC analysis of the product profile of the culture supernatant of transformants in a medium containing D-sorbitol or L-sorbose as substrate. The transformants were cultivated overnight in RM medium containing 20 μg/ml of Kanamycin. This overnight culture was used to inoculate the 25 ml RM medium (supplemented with 20 μg/ml of Kanamycin) containing 20 g/l of D-sorbitol or 20 g/l of L-sorbose as substrate instead of mannitol. The culture supernatant samples were taken in a 12-hour interval and were analyzed by HPLC (Gilson HPLC with RI detector (ERC-7515A, ERC Inc.)) equipped with Asted XL automatic sample injector. […] The peaks were identified and the concentration was determined by comparison with those of the standards using glycerol as internal standard. […]

[10] = system: K. robustum ADM X6L transformants; assay: Bioconversion of D-sorbitol by transformants, HPLC of culture supernatant; assay type: cell-based, Ketogulonigenium robustum ADM X6L; conditions: D-sorbitol as substrate
Method: as §10
The effect of overexpression of the three SDH genes in bioconversion activity was analyzed by HPLC analysis of the product profile of the culture supernatant of transformants in a medium containing D-sorbitol or L-sorbose as substrate. The transformants were cultivated overnight in RM medium containing 20 μg/ml of Kanamycin. This overnight culture was used to inoculate the 25 ml RM medium (supplemented with 20 μg/ml of Kanamycin) containing 20 g/l of D-sorbitol or 20 g/l of L-sorbose as substrate instead of mannitol. The culture supernatant samples were taken in a 12-hour interval and were analyzed by HPLC (Gilson HPLC with RI detector (ERC-7515A, ERC Inc.)) equipped with Asted XL automatic sample injector. Samples were loaded on two 2 mm×300 mm×7.8 mm Aminex HPX-87H columns (BioRad) arranged in series to provide a total column length of 600 mm. The column was run at 50° C. at a flow rate of 0.5 ml/min. The peaks were identified and the concentration was determined by comparison with those of the standards using glycerol as internal standard.
K. robustum ADM X6L transformants harboring the pXSDH1, pXSDH2 or pXSDH3 were cultivated with D-sorbitol or L-sorbose as substrate. HPLC analysis of the products from D-sorbitol (Table 10) or L-sorbose (Table 11) is shown below. A transformant harboring pXH2 served as control.

Molecule | nicotinamide cofactor dependence (in words) [1] | SDH activity, Osmotic Shock Fluid [2] | SDH activity, Pellet Sonicate [2] | SDH activity, Tris-Sucrose Wash [2] | % relative activity, ADM291-19 [3] [%] | activity of the purified enzymes toward the substrate (in words) [4] | enzyme activity, Cell Free Extract [5] | enzyme activity, Membrane Fraction [5] | enzyme activity, Soluble Fraction [5] | % relative activity, ADM X6L [6] [%] | enzyme activity, Cell Free Extract [7] | enzyme activity, Membrane Fraction [7] | enzyme activity, Soluble Fraction [7] | other results
NC(=O)c1ccc[n+]([C@@H]2O[C@H](COP(=O)([O-])OP(=O)(O)OC[C@H]3O[C@@H](n4cnc5c(N)ncnc54)[C@H](O)[C@@H]3O)[C@@H](O)[C@H]2O)c1 [AND] | did not show any sign of nicotinamide cofactor dependence | – | – | – | – | – | – | – | – | – | – | – | – | –
O=C(CO)[C@@H](O)[C@H](O)[C@@H](O)CO [L-sorbose] | – | 0.20 ΔOD/min/50 μl enzyme | 0.43 ΔOD/min/50 μl enzyme | 0.14 ΔOD/min/50 μl enzyme | 8.8 | active | 0.64 ΔOD/min/4 μl enzyme | 0.01 ΔOD/min/4 μl enzyme | 0.61 ΔOD/min/4 μl enzyme | 8.7 | 0.55 ΔOD/min/2 μl enzyme | 0.00 ΔOD/min/2 μl enzyme | 0.53 ΔOD/min/2 μl enzyme | –
NC(=O)c1ccc[n+]([C@@H]2O[C@H](COP(=O)([O-])OP(=O)(O)OC[C@H]3O[C@@H](n4cnc5c(N)ncnc54)[C@H](OP(=O)(O)O)[C@@H]3O)[C@@H](O)[C@H]2O)c1 [NADP] | did not show any sign of nicotinamide cofactor dependence | – | – | – | – | – | – | – | – | – | – | – | – | –
O=S1(=O)OC(c2ccc(O)c(Cl)c2)(c2ccc(O[C@@H]3O[C@H](CO)[C@H](O)[C@H](O)[C@H]3O)c(Cl)c2)c2ccccc21 (stereo partly drawn) [chlorophenol red-β-D-galactopyranoside] | – | – | – | – | – | – | – | – | – | – | – | – | – | β-Galactosidase Activity, Osmotic Shock Fluid ([8]; Osmotic Shock Fluid): 0.057 nmol/min; β-Galactosidase Activity, Pellet Sonicate ([8]; Pellet Sonicate): 2.2 nmol/min; β-Galactosidase Activity, Tris-Sucrose Wash ([8]; Tris-Sucrose Wash): 0.043 nmol/min
O=CC=O [glyoxal] | – | 0.43 ΔOD/min/50 μl enzyme | 0.76 ΔOD/min/50 μl enzyme | 0.36 ΔOD/min/50 μl enzyme | 16.1 | active | 0.39 ΔOD/min/4 μl enzyme | 0.00 ΔOD/min/4 μl enzyme | 0.50 ΔOD/min/4 μl enzyme | 15.1 | 0.61 ΔOD/min/2 μl enzyme | 0.00 ΔOD/min/2 μl enzyme | 0.52 ΔOD/min/2 μl enzyme | –
B1 | – | – | – | – | – | – | – | – | – | – | – | – | – | improvement of 2KLG production from L-sorbose upon overexpression ([9]; flask scale experiment, versus pXH2 control): 2-3 times; 2KLG production from L-sorbose upon overexpression (in words) ([9]; flask scale experiments): significantly improved; products formed upon overexpression with D-sorbitol as substrate (in words) [10]: formation of 2-keto-D-gluconic acid (2KDG) as well as 2KLG
